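Compound exposure: 48 hours, 5 concentrations, 96-well plates. Abbreviation: GI50, concentration required for 50% inhibition of growth. TGI: concentration producing complete growth inhibition.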
Key:
Experiment in all cases: inhibition of tumour cell growth, NCI panel, 48 h
A549 NSCLC = system: A549 NSCLC
CAKI-1 renal = system: CAKI-1 renal
CCRF-CEM leukemia = system: CCRF-CEM leukemia
K-562 leukemia = system: K-562 leukemia
MOLT-4 leukemia = system: MOLT-4 leukemia
OVCAR-5 ovarian = system: OVCAR-5 ovarian
PC-3 prostate = system: PC-3 prostate
T-47D breast = system: T-47D breast

Compound	GI50 (A549 NSCLC) [µM]	TGI (A549 NSCLC) [µM]	GI50 (CAKI-1 renal) [µM]	TGI (CAKI-1 renal) [µM]	GI50 (CCRF-CEM leukemia) [µM]	TGI (CCRF-CEM leukemia) [µM]	GI50 (K-562 leukemia) [µM]	TGI (K-562 leukemia) [µM]	GI50 (MOLT-4 leukemia) [µM]	TGI (MOLT-4 leukemia) [µM]	GI50 (OVCAR-5 ovarian) [µM]	TGI (OVCAR-5 ovarian) [µM]	GI50 (PC-3 prostate) [µM]	TGI (PC-3 prostate) [µM]	GI50 (T-47D breast) [µM]	TGI (T-47D breast) [µM]
CCN1C(=O)CNc2ncc(-c3ccc(-c4ncn[nH]4)nc3C)nc21	0.263	7.24	0.0441	0.576	0.215	> 34.8	0.358	> 100	0.139	1.54	0.169	8.96	0.0706	1.97	0.0169	0.185
COc1ccc(OC)c(/C=C/C(=O)N/N=C/c2ccc(Cl)cc2)c1	0.242	> 100	0.0786	> 100	0.141	> 100	0.042	> 100	0.213	> 100	15.3	> 100	0.105	> 100	0.0786	> 65.8
CN(C)CCCn1c2c(c3ccccc3c1=O)C(=O)c1ccccc1-2	0.65	3.14	0.583	2.44	1.44	28.9	1.9	8.01	0.276	0.746	3.06	14	2.27	13.7	3.01	14.8
COc1cc(C2=NN(C(C)=O)C(c3ccc(OC(C)=O)cc3OC(C)=O)O2)c(OC(C)=O)c2ccccc12 (stereo not given)	1.57	28.4	0.465	> 21.1	0.338	8.03	0.872	> 91.2	0.44	8.5	5.64	> 66.8	0.753	35.4	1.12	9.97
CN(C)CCNC(=O)c1cccc(C(=O)Nc2ccccc2)c1[N+](=O)[O-]		> 100		> 100		> 100		> 100		> 100		> 100		> 100		> 100
O=C(c1cccc(O)c1O)c1cn(Cc2ccc(F)cc2)c2cccc(O)c12	3.31	16.7	4.13	18.5	0.861	6.44	3.56	> 37.7	0.84	10.3	9.04	26.4	6.92	26.7	3.16	16.2
NC(N)=NCCCn1c2c(c3ccccc3c1=O)C(=O)c1ccccc1-2	27.1	> 100	20.3	49	19.9	> 100	11.6	29.5	2.65	18.8	25.7	94.6	52.1	> 100	22.9	66.6
CCC#CC[C@H]1C/C=C2/C(=O)C=C[C@@H]2C/C=C\CCCC(=O)O1	1.24	4.03	0.935	2.1	0.791	5	0.661	4.44	1.24	3.96	1.74	6.92	1.35	6.05	1.35	10.2
CCN(CC)CCN1CC(O)=C(c2nc(-c3ccc(Cl)cc3)cs2)C1=N	3.62	17.8	1.98	6.72	2	4.99	1.42	3.04	1.87	4.42	6.38	31.3	6.8	> 100	2.19	5.11
COc1ccc2c(c1)C(=O)c1c-2n(CCCn2ccnc2)c(=O)c2ccccc12	0.511	4.66	0.211	1.34	0.213	24.8	0.548	> 100	0.136	> 100	1.24	3.92	0.765	> 100	0.399	5.68
COc1cc(NC(=O)c2cc(O)c(CC=C(C)C)c(O)c2)cc2c1O[C@]1(C)CC[C@@H](O)C(C)(C)[C@H]1C2	6.87	23.2	3.17	> 100	2.21	> 100	3.58	34.1	2.07	7.87	12	66.7	3.03	35.1	2.44	22.6
CCN(CC)c1sc(N(CC)CC)c2c1SSSSS2	1.84	3.64	1.49	3.78	0.359	1.24	1.64	> 100	0.343	> 100	1.52	3.2	2.05	4.26	3.17	> 100
Nc1ncc(-c2cnn(CCO)c2)c2scc(-c3ccc(NC(=O)Nc4cccc(F)c4)cc3)c12	0.125	1.5	0.32	2.2	< 0.01	5.01	0.0399	15.1	< 0.0226	2.34	0.375	3	0.288	3.28	1.32	5.93
Cc1cc(C)c(C(=O)CC(=O)c2cccnc2)c(C)c1	6.97	> 100	1.34	5.52	4.1	45.8	3.71	> 100	4.41	38.4	9.84	> 100	8.73	> 100	10.2	> 100
O=C(Nc1ccc(Cl)cc1)c1cc(-c2ccc(F)cc2)c2sc(=O)[nH]c2n1	2.45	10.1	2.15	4.99	0.657	9.9	0.581	10.9	0.721	4.02	2.34	7.9	0.65	13.3	0.739	5.25
CCOC(=O)c1c(CN2CCN(c3ccccc3)CC2)n(-c2ccccc2)c2cc(Br)c(O)cc12	3.58	> 100	15.3	36.9	0.0602	> 100	6.32	> 100	3.56	29.5	9.98	44.8	3.21	13.3	7.59	37.9
COc1ccc(C(=O)c2cc(C)c(OC)c(C)c2)c(OC)c1N(C(=O)C(Cl)Cl)C(=O)C(Cl)Cl	0.0804	> 100	0.0415	> 100	0.0626	> 100	0.0487	> 100	0.122	> 100	0.111	> 100	0.0436	> 100		
Fc1cc(F)c(COc2cc(Cn3cnc4c(Cl)nc(Cl)nc43)ccc2C23CC4CC(CC(C4)C2)C3)cc1F	28	76.7	10.4	22.8	1.91	4.52					19.9	37.4	19.3	33.8	16.7	45.1
Cc1cn2c(/C=C3/C(=O)N(C)c4ccccc43)c(C)nc2s1	12.8	> 100			14.5	> 100	2.23	7.15	4.84	26.8	28.6	> 100	16.5	> 100	4.49	> 100
O=C(CCl)Nc1ccc(Cl)cc1	11.2	26.9	1.59	3.31							3.57	12.9	7.36	23.7	3.8	15.6
c1ccc(C2=NNC3c4ccccc4-c4ccccc4N3C2)cc1 (stereo not given)		> 100		> 100				82		56.9		> 100		65.5		92.4
NC(CC(=O)OCc1ccccc1)C(=O)OCc1ccccc1 (stereo not given)		> 100		> 100		> 100						> 100		> 100		> 100
CCOC(=O)c1cc(/C(=N\O)c2cc(OC)c(OC)c(OC)c2)n2cc(C)cc(C)c12	3.99	> 100	2.36	> 100									3.33	> 100		
CN(C)c1ccc(N)cc1	4.58	52.6	5.6	30.9							13.5	42.6	3.53	21.8	3.25	9.7
CC12CCCC(O)C1CCC1=CC3(CCC12)SCCS3 (stereo not given)		> 10		> 10		> 10		> 10						> 10		> 10
O=C1c2ccccc2-c2c1c1ccccc1c(=O)n2Cc1ccccc1		> 100		> 100		> 100				> 100		> 100		> 100		> 100
